The source of these data is patent publication US10669268B2, “Bicyclic derivatives” (Hoffmann-La Roche Inc., priority 2012, dated 2020).

Structures are written as SMILES. pIC50: −log10 of the molar value.

In this assay the target is ATX (human His-tagged) (Homo sapiens (Human), UniProt Q13822). Briefly: Human ATX enzyme inhibition assay (fluorescence quenching, MR121 substrate). Type of assay: biochemical. Conditions: 30 nM ATX, 1 μM MR121 substrate, 30° C., pH 8.0. Put shortly: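 Fluorescence-quenching assay using MR121 substrate at 1 μM final, incubated 15 min at 30 °C. Buffer was 50 mM Tris-HCl pH 8.0 with 140 mM NaCl, 5 mM KCl, 1 mM CaCl2, 1 mM MgCl2 and 0.01% Triton X-100.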
As a reminder, the pIC50 is the IC50 on a negative log10 scale, so that one unit is a factor of ten. Low readings indicate a high IC50, high ones a low IC50. The compound `O=C(OCC1C[C@H]2CC[C@@H]1C2)N1C[C@@H]2CN(C(=O)c3ccc4[nH]nnc4c3)C[C@@H]2C1` (stereo partly drawn) [Example 4.32, (3aS,6aR)-5-(1H-benzotriazole-5-carbonyl)-hexahydro-pyrrolo[3,4-c]pyrrole-2-carboxylic acid (1R,4S)-1-bicyclo[2.2.1]hept-2-ylmethyl ester] had a pIC50 of 5.41.
To `O=C(NCc1cnn[nH]1)[C@H]1C[C@@H]2CN(C(=O)OCc3cc(Cl)cc(Cl)c3)C[C@@H]2C1` [Example 4.33, (3aR,5s,6aS)-5-[(3H-[1,2,3]triazol-4-ylmethyl)-carbamoyl]-hexahydro-cyclopenta[c]pyrrole-2-carboxylic acid 3,5-dichloro-benzyl ester] belongs 7.44.
For the compound `CS(=O)(=O)c1cc(Cl)cc(COC(=O)N2C[C@@H]3CN(C(=O)N4CCc5[nH]nnc5C4)C[C@H]3C2)c1` [Example 4.34, (3aS,6aS)-5-(1,4,6,7-tetrahydro-[1,2,3]triazolo[4,5-c]pyridine-5-carbonyl)-hexahydro-pyrrolo[3,4-c]pyrrole-2-carboxylic acid 3-chloro-5-methanesulfonyl-benzyl ester], the pIC50 was 7.72.
`O=C(OCc1ccc(OC(F)(F)C(F)F)cc1)N1C[C@@H]2CN(C(=O)c3ccc4[nH]nnc4c3)C[C@H]2C1` [Example 4.38, (3aS,6aS)-5-(1H-benzotriazole-5-carbonyl)-hexahydro-pyrrolo[3,4-c]pyrrole-2-carboxylic acid 4-(1,1,2,2-tetrafluoro-ethoxy)-benzyl ester] showed a pIC50 of 7.62.
Consider `O=C(OCc1ccc(OC(F)F)c(F)c1)N1C[C@@H]2CN(C(=O)c3ccc4[nH]nnc4c3)C[C@H]2C1` [Example 4.39, (3aS,6aS)-5-(1H-benzotriazole-5-carbonyl)-hexahydro-pyrrolo[3,4-c]pyrrole-2-carboxylic acid 4-difluoromethoxy-3-fluoro-benzyl ester], for which the pIC50 was 8.22.
In the case of `O=C(OCc1ccc(OC(F)(F)F)c(F)c1)N1C[C@@H]2CN(C(=O)c3ccc4[nH]nnc4n3)C[C@H]2C1` [Example 4.40, (3aS,6aS)-5-(1H-[1,2,3]triazolo[4,5-b]pyridine-5-carbonyl)-hexahydro-pyrrolo[3,4-c]pyrrole-2-carboxylic acid 3-fluoro-4-trifluoromethoxy-benzyl ester] it was 7.80; in that of `O=C(OCc1ccc(OC(F)F)cc1)N1C[C@@H]2CN(C(=O)c3ccc4[nH]nnc4c3)C[C@H]2C1` [Example 4.41, (3aS,6aS)-5-(1H-benzotriazole-5-carbonyl)-hexahydro-pyrrolo[3,4-c]pyrrole-2-carboxylic acid 4-difluoromethoxy-benzyl ester], 8.05.
In the case of `O=C(OCc1ccc(OC(F)(F)F)cc1)N1C[C@@H]2CN(C(=O)c3ccc4[nH]nnc4n3)C[C@H]2C1` [Example 4.42, (3aS,6aS)-5-(1H-[1,2,3]triazolo[4,5-b]pyridine-5-carbonyl)-hexahydro-pyrrolo[3,4-c]pyrrole-2-carboxylic acid 4-trifluoromethoxy-benzyl ester], the pIC50 is 7.62.
`O=C(OCc1ccc(OC(F)(F)F)c(F)c1)N1C[C@@H]2CN(C(=O)c3ccc4[nH]nnc4c3)C[C@H]2C1` [Example 4.43, (3aS,6aS)-5-(1H-benzotriazole-5-carbonyl)-hexahydro-pyrrolo[3,4-c]pyrrole-2-carboxylic acid 3-fluoro-4-trifluoromethoxy-benzyl ester] showed a pIC50 of 8.40.
Compound `O=C(OCc1ccc(OCC(F)(F)F)cc1)N1C[C@@H]2CN(C(=O)c3ccc4[nH]nnc4c3)C[C@H]2C1` [Example 4.44, (3aS,6aS)-5-(1H-benzotriazole-5-carbonyl)-hexahydro-pyrrolo[3,4-c]pyrrole-2-carboxylic acid 4-(2,2,2-trifluoro-ethoxy)-benzyl ester] had a pIC50 of 8.22.
`O=C(OCc1ccc(OC(F)(F)F)cn1)N1C[C@@H]2CN(C(=O)c3ccc4[nH]nnc4c3)C[C@H]2C1` [Example 4.45, (3aS,6aS)-5-(1H-benzotriazole-5-carbonyl)-hexahydro-pyrrolo[3,4-c]pyrrole-2-carboxylic acid 5-trifluoromethoxy-pyridin-2-ylmethyl ester] showed a pIC50 of 8.15.
For `CC(C)c1cc(C#N)ccc1COC(=O)N1C[C@@H]2CN(C(=O)[C@@H]3CCc4[nH]nnc4C3)C[C@H]2C1` [Example 4.46, (3aS,6aS)-5-((R)-4,5,6,7-tetrahydro-1H-benzotriazole-5-carbonyl)-hexahydro-pyrrolo[3,4-c]pyrrole-2-carboxylic acid 4-cyano-2-isopropyl-benzyl ester], the pIC50 is 8.30.
On to `Cc1cc(COC(=O)N2C[C@@H]3CN(C(=O)[C@@H]4CCc5[nH]nnc5C4)C[C@H]3C2)c(C(C)C)cc1C#N` [Example 4.47, (3aS,6aS)-5-((R)-4,5,6,7-tetrahydro-1H-benzotriazole-5-carbonyl)-hexahydro-pyrrolo[3,4-c]pyrrole-2-carboxylic acid 4-cyano-2-isopropyl-5-methyl-benzyl ester], for which the pIC50 is 8.40.
With `O=C(OCc1ccc(OC(F)(F)F)cc1F)N1C[C@@H]2CN(C(=O)[C@@H]3CCc4[nH]nnc4C3)C[C@H]2C1` [Example 4.48, (3aS,6aS)-5-((R)-4,5,6,7-tetrahydro-1H-benzotriazole-5-carbonyl)-hexahydro-pyrrolo[3,4-c]pyrrole-2-carboxylic acid 2-fluoro-4-trifluoromethoxy-benzyl ester], the pIC50 was 8.52.
For `O=C(OCc1ccc(OC(F)(F)F)cc1F)N1C[C@@H]2CN(C(=O)c3ccc4[nH]nnc4c3)C[C@H]2C1` [Example 4.49, (3aS,6aS)-5-(1H-benzotriazole-5-carbonyl)-hexahydro-pyrrolo[3,4-c]pyrrole-2-carboxylic acid 2-fluoro-4-trifluoromethoxy-benzyl ester], the pIC50 is 8.52.
`CC(C)c1cc(C#N)ccc1COC(=O)N1C[C@@H]2CN(C(=O)c3ccc4[nH]nnc4c3)C[C@H]2C1` [Example 4.52, (3aS,6aS)-5-(1H-benzotriazole-5-carbonyl)-hexahydro-pyrrolo[3,4-c]pyrrole-2-carboxylic acid 4-cyano-2-isopropyl-benzyl ester] had a pIC50 of 8.00.
In the case of `Cc1cc(COC(=O)N2C[C@@H]3CN(C(=O)c4ccc5[nH]nnc5c4)C[C@H]3C2)c(C(C)C)cc1C#N` [Example 4.53, (3aS,6aS)-5-(1H-benzotriazole-5-carbonyl)-hexahydro-pyrrolo[3,4-c]pyrrole-2-carboxylic acid 4-cyano-2-isopropyl-5-methyl-benzyl ester] it was 8.30; in that of `O=C(OCc1ccc(OC(F)(F)F)cc1)N1C[C@@H]2CN(C(=O)N3CCc4[nH]nnc4C3)C[C@H]2C1` [Example 4.54, (3aS,6aS)-5-(1,4,6,7-tetrahydro-[1,2,3]triazolo[4,5-c]pyridine-5-carbonyl)-hexahydro-pyrrolo[3,4-c]pyrrole-2-carboxylic acid 4-trifluoromethoxy-benzyl ester], 7.85.
`O=C(OCc1ccc(C(F)(F)F)cc1F)N1C[C@@H]2CN(C(=O)c3ccc4[nH]nnc4c3)C[C@H]2C1` [Example 4.56, (3aS,6aS)-5-(1H-benzotriazole-5-carbonyl)-hexahydro-pyrrolo[3,4-c]pyrrole-2-carboxylic acid 2-fluoro-4-trifluoromethyl-benzyl ester] showed a pIC50 of 8.05.
Compound `O=C(OCc1ccc(C(F)(F)F)cc1)N1C[C@@H]2CN(C(=O)c3ccc4[nH]nnc4c3)C[C@H]2C1` [Example 4.57, (3aS,6aS)-5-(1H-benzotriazole-5-carbonyl)-hexahydro-pyrrolo[3,4-c]pyrrole-2-carboxylic acid 4-trifluoromethyl-benzyl ester] showed a pIC50 of 7.96.
In turn, `O=C(OCc1ccc(OC(F)(F)F)cc1)N1C[C@@H]2CN(C(=O)[C@@H]3CCc4[nH]nnc4C3)C[C@H]2C1` [Example 4.58, (3aS,6aS)-5-((R)-4,5,6,7-tetrahydro-1H-benzotriazole-5-carbonyl)-hexahydro-pyrrolo[3,4-c]pyrrole-2-carboxylic acid 4-trifluoromethoxy-benzyl ester] showed a pIC50 of 8.28.
`O=C(OCc1ccc(C(F)(F)F)cc1)N1C[C@@H]2CN(C(=O)[C@@H]3CCc4[nH]nnc4C3)C[C@H]2C1` [Example 4.59, (3aS,6aS)-5-((R)-4,5,6,7-tetrahydro-1H-benzotriazole-5-carbonyl)-hexahydro-pyrrolo[3,4-c]pyrrole-2-carboxylic acid 4-trifluoromethyl-benzyl ester] had a pIC50 of 8.05.
To `CS(=O)(=O)c1cc(Cl)cc(COC(=O)N2C[C@@H]3CN(C(=O)[C@@H]4CCc5[nH]nnc5C4)C[C@H]3C2)c1` [Example 4.60, (3aS,6aS)-5-((R)-4,5,6,7-tetrahydro-1H-benzotriazole-5-carbonyl)-hexahydro-pyrrolo[3,4-c]pyrrole-2-carboxylic acid 3-chloro-5-methanesulfonyl-benzyl ester] belongs 8.30; to `N#Cc1ccc(COC(=O)N2C[C@@H]3CN(C(=O)c4ccc5[nH]nnc5c4)C[C@H]3C2)c(OC2CCC2)c1` [Example 4.64, (3aS,6aS)-5-(1H-benzotriazole-5-carbonyl)-hexahydro-pyrrolo[3,4-c]pyrrole-2-carboxylic acid 4-cyano-2-cyclobutoxy-benzyl ester], 7.72; to `CC(C)Oc1cc(C#N)ccc1COC(=O)N1C[C@@H]2CN(C(=O)c3ccc4[nH]nnc4c3)C[C@H]2C1` [Example 4.65, (3aS,6aS)-5-(1H-benzotriazole-5-carbonyl)-hexahydro-pyrrolo[3,4-c]pyrrole-2-carboxylic acid 4-cyano-2-isopropoxy-benzyl ester], 7.85.
